Assay results taken from ChEMBL document CHEMBL3525953, “In vitro cytochrome P450-mediated metabolism of exemestane” (Drug Metab Dispos, 2011).

Key:
Format in all cases: ADME
Liver microsome = experiment: Drug metabolism in human liver microsomes assessed as 17-hydroexemestane formation after 10 mins by Michaelis-Menten saturation curve analysis
Cytochrome P450 2A6 = molecular target: T1, Cytochrome P450 2A6 (Homo sapiens, UniProt P11509); experiment: Drug metabolism assessed as human recombinant CYP2A6-mediated 17-hydroexemestane formation rate per pmol of enzyme at 10 uM after 10 mins
T1 sequence (P11509 whole entry): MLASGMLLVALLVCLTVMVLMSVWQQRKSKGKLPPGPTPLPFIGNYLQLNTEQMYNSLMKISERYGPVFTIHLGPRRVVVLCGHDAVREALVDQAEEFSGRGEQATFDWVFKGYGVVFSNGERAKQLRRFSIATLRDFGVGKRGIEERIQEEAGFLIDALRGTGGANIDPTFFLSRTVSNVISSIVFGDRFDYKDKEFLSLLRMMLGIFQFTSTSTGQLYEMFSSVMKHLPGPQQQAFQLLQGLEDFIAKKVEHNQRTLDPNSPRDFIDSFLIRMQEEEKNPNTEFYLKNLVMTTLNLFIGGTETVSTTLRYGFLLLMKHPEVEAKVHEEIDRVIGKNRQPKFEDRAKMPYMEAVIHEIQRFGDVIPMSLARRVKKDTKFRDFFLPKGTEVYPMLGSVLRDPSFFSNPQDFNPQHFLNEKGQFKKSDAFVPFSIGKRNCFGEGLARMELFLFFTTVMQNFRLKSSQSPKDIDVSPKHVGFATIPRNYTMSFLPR

Cytochrome P450 1A2 = molecular target: T2, Cytochrome P450 1A2 (Homo sapiens, UniProt P05177); experiment: Drug metabolism assessed as human recombinant CYP1A2-mediated 17-hydroexemestane formation at 10 uM after 10 mins by Michaelis-Menten saturation curve analysis; conditions: recombinant enzyme
T2 sequence (P05177 whole entry): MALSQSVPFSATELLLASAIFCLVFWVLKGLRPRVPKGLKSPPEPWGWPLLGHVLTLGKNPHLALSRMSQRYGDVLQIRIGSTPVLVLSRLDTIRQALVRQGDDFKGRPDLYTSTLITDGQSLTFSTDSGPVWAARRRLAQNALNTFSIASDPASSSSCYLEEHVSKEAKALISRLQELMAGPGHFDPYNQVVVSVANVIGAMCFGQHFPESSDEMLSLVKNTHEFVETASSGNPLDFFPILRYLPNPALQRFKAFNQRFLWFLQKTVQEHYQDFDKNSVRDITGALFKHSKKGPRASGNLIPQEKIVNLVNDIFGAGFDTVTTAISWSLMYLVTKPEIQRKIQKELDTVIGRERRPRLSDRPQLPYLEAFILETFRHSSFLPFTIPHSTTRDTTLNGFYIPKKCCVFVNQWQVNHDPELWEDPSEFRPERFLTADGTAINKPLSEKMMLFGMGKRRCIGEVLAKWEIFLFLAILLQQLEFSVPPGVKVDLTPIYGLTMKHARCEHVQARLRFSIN

## C=C1C[C@@H]2[C@H](CC[C@]3(C)C(O)CC[C@@H]23)[C@@]2(C)C=CC(=O)C=C12 (some centres undefined)
Liver microsome
  Vmax(app): 222.4 pmol/mg/min
Liver microsome; read-out: Km(app)
  Km: 13.7 µM
Cytochrome P450 2A6
  Drug metabolism: 0.51 pmol/min
Cytochrome P450 1A2
  Drug metabolism: metabolite_detected
